Consider one compound from US20130040952A1 (priority 2011, published 2013).

What all share (assay type): cell-based, recombinant influenza virus in WSN background
Assay [1] relates to nucleozin-resistant rWSN virus (Y289H mutation at NP).
Assay [2] relates to Y52H/Y289H double mutation rWSN virus. Particulars: read-out: Anti-rWSN IC50 (μM), NP Y52H/Y289H.
Assay [3] has as its system compound 3061-resistant rWSN virus (Y52H mutation at NP).

Take `O=C(NCCCN1CCOCC1)c1csc(Nc2ccc(Cl)c(Cl)c2)n1` [compound 1]: the “inhibition of nucleozin-resistant strain” value in assay [1] is listed as “capable of inhibiting”. For the same compound, the IC50 in assay [1] (read-out: Anti-rWSN IC50 (μM), NP Y289H) came to 4 µM; in assay [2], 1.8 µM; in assay [3] (read-out: Anti-rWSN IC50 (μM), NP Y52H), 3.2 µM. In addition, the “inhibition of 3061-resistant strain” value in assay [3] is given as “capable of inhibiting”.
